Laboratory results as given in US8440789B2, “Pharmaceutical and/or cosmetic composition containing an active antioxydant principle and cell energy activator” (Societe d'Extraction des Principes Actifs (Vincience), priority 2007, dated 2013).
Ends that are not written are not given here.

Key:
Type in all cases: cell-based
dermal fibroblasts [1] = assay: Synthesis of intracellular ATP (ATP Bioluminescence Assay Kit HS II); conditions: 1% solution of a 50 ppm solution of peptide, compared to the untreated cells
Experimental: The goal of this study is to determine the influence of the peptide SEQ ID no 2 on the synthesis of ATP.
This study was conducted using an “ATP Bioluminescence Assay Kit HS II” Kit (Roche Applied Science):
The dermal fibroblasts are treated with a 1% solution, a solution a 50 ppm, containing the peptide SEQ ID no 2, representative of the family of peptides according to the invention, for a period lasting from 1 to 3 hours. At the end of the incubation period, the wells are emptied of their medium and rinsed with 2 ml of cold PBS before adding 250 μl of a lysis buffer supplied by the kit. The cells of each well are then scrapped, then collected in 14 ml tubes. Each well is rinsed with 2×500 μl of cold PBS and everything is against collected the respective tubes. Beginning with these samples, a 1/12000th dilution is done in cold PBS before each reading. The dosage of ATP is done on these samples: 50 μL of this dilution is placed in a luma basin and 50 μl of luminol are added. After 10 seconds, the luminescence read is triggered. The values are standardized with respect to the quantity of proteins for each sample. The measures are done using an apparatus: the Biocounter M2010A LUMAC®/3M.

dermal fibroblasts [2] = assay: Protection against oxidative damage: carbonylation of proteins (EIA/ELISA with DNP); conditions: for decrease in carbonylation: peptide 1% solution at 50 ppm, 72 hours before, during, 24 hours after stress
Excerpt: The goal of this study is to determine the protector effect of the peptide SEQ ID no 1 with respect to dermal fibroblasts subjected to oxidative stress caused by UV rays or hydrogen peroxide (H2O2). To evaluate the oxidative damage suffered by the cells, measurements of the carbonylation of the proteins was done.
The carbonylation of proteins is the result of the oxidative splitting of proteins or oxidation of the arginine residues, lysine, proline or threonine. The dosage of the carbonylation of proteins is done using an EIA (Enzyme Immuno Assay) technique.
Fibroblasts in culture were placed in the presence of the peptide SEQ ID no 1 in a 1% solution, at 50 ppm, 72 hours before, during, and also 24 hours after the oxidative stress (UVB irradiation of 50 mJ/cm^2 or treatment par 2 mM of H2O2). untreated controls not subjected to oxidative stress are done.
The degree of carbonylation consists in the use of DNP (dinitrophenyl) which has the property to se fixer specifically on these carbonyl groups of the proteins. The fixed DNP is then assayed using an ELISA method, thanks to an anti-DNP antibody linked to peroxydase. A range of BSA (bovine albumin serum) oxidized (with a known concentration of carbonyl groups) is used for calibration.

Biopsies of human skin = assay: Protection against stress induced by glycation, ex vivo skin culture, H&E histology; conditions: methyl glyoxal at 5 or 10 mM; peptide 1% of a 50 ppm mother solution, 24 hours before and 24 hours after glycation agent
Experimental: The goal of this study is to determine the protective effective of the peptide SEQ ID no 1, with respect to ex vivo epidermal culture subjected to stress by a glycation agent.
Biopsies of human skin are maintained in ex vivo culture, treated with a 1% solution, a mother solution of 50 ppm of peptide SEQ ID no 1, 24 hours before, and also 24 hours after the introduction of a glycation agent (methyl glyoxal at 5 or 10 mM). Histology hematoxyline-eosine (H&E) staining makes it possible to evaluate the quality of skin structures.

AVLAGD [peptide SEQ ID No 2] was tested, and the “increase in the quantity of intracellular ATP” value (dermal fibroblasts [1]; after 1 hour of culture) was 17% and the “increase in the quantity of intracellular ATP” value (dermal fibroblasts [1]; after 3 hours of culture) was 67%.

For “Ala-Val-Leu-Ala-Gly-Asp-NH2 (AVLAGD-NH2) [peptide SEQ ID no 1]”, the decrease in carbonylation (dermal fibroblasts [2]; UVB irradiation of 50 mJ/cm^2, compared to irradiated cells not treated) was 20%, the “reduction in the carbonylation of proteins” value (dermal fibroblasts [2]; cells treated with peptide (1% solution, at 50 ppm), compared to the untreated cells) was 30% and the decrease in carbonylation (dermal fibroblasts [2]; oxidative stress by 2 mM of H2O2, compared to stressed cells not treated) was 20%. For the same substance, the “evaluation of the skin structures (H&E staining)” value (Biopsies of human skin) was “net resistance to cellular stress induced by glycation”.
